{"source": "patent US9056209B2", "about": "“Apigenin-containing composition” (Kao Corporation, priority 2009, dated 2015)", "assay": "Evaluation of stability of apigenin in composition (apigenin retention ratio by HPLC)", "type": "physicochemical", "conditions": "for Apigenin retention ratio (amount of apigenin stored at 50° C./amount of apigenin stored at −5° C.): apigenin about 9 ppm, stored one month", "procedure": "Twenty gram of Roman chamomile was extracted with 200 mL of 50% butanediol for 7 days at room temperature, and then the extract was filtered to obtain 155 mL of a Roman chamomile extract. The evaporation residue in 1 mL of the extract was 18.6 mg, and the amount of apigenin in 1 mL of the extract was 305 ppm. This extract was used as the apigenin-containing extract in the following experiments. BHT was added to each of the solutions of various pH conditions, in an amount of 0, 1, 10, 100 and 500 ppm, respectively, and thus test solutions (final apigenin concentration: about 9 ppm) were prepared. The respective test solutions were stored for one month under the conditions of −5° C. and 50° C., and then the amount of apigenin in each of the solutions was measured by HPLC (Inertsil ODS-3 (internal diameter 3.0 mm, length 150 mm, particle size 5 μm) manufactured by GL Sciences, Inc., eluent: 50% aqueous solution of 25 mM potassium dihydrogen phosphate/50% methanol, column temperature: 40° C., detection: UV 340 nm). The ratio of the amount of apigenin stored at 50° C. with respect to that stored at −5° C. was determined as the apigenin retention ratio."}
{"compound": "O=c1cc(-c2ccc(O)cc2)oc2cc(O)cc(O)c12", "note": "[Apigenin, apigenin]", "values": [{"measurement": "apigenin retention ratio (in words)", "setting": "mass ratio apigenin/BHT about 1 or greater, or pH of the solution less than 7, storage for a long time", "value": "high retention ratios were maintained"}, {"measurement": "apigenin retention ratio (in words)", "setting": "mass ratio apigenin/BHT about less than 1 (BHT 10 ppm or more) and pH 7 or higher", "value": "the apigenin retention ratio decreased"}, {"measurement": "Apigenin retention ratio (amount of apigenin stored at 50° C./amount of apigenin stored at −5° C.)", "setting": "pH 6, BHT 0 ppm", "value": 103, "unit": "%"}, {"measurement": "Apigenin retention ratio (amount of apigenin stored at 50° C./amount of apigenin stored at −5° C.)", "setting": "pH 6, BHT 1 ppm", "value": 102, "unit": "%"}, {"measurement": "Apigenin retention ratio (amount of apigenin stored at 50° C./amount of apigenin stored at −5° C.)", "setting": "pH 6, BHT 10 ppm", "value": 98, "unit": "%"}, {"measurement": "Apigenin retention ratio (amount of apigenin stored at 50° C./amount of apigenin stored at −5° C.)", "setting": "pH 6, BHT 100 ppm", "value": 96, "unit": "%"}, {"measurement": "Apigenin retention ratio (amount of apigenin stored at 50° C./amount of apigenin stored at −5° C.)", "setting": "pH 6, BHT 500 ppm", "value": 96, "unit": "%"}, {"measurement": "Apigenin retention ratio (amount of apigenin stored at 50° C./amount of apigenin stored at −5° C.)", "setting": "pH 6.5, BHT 0 ppm", "value": 100, "unit": "%"}, {"measurement": "Apigenin retention ratio (amount of apigenin stored at 50° C./amount of apigenin stored at −5° C.)", "setting": "pH 6.5, BHT 1 ppm", "value": 94, "unit": "%"}, {"measurement": "Apigenin retention ratio (amount of apigenin stored at 50° C./amount of apigenin stored at −5° C.)", "setting": "pH 6.5, BHT 10 ppm", "value": 98, "unit": "%"}, {"measurement": "Apigenin retention ratio (amount of apigenin stored at 50° C./amount of apigenin stored at −5° C.)", "setting": "pH 6.5, BHT 100 ppm", "value": 96, "unit": "%"}, {"measurement": "Apigenin retention ratio (amount of apigenin stored at 50° C./amount of apigenin stored at −5° C.)", "setting": "pH 6.5, BHT 500 ppm", "value": 99, "unit": "%"}, {"measurement": "Apigenin retention ratio (amount of apigenin stored at 50° C./amount of apigenin stored at −5° C.)", "setting": "pH 7, BHT 0 ppm", "value": 96, "unit": "%"}, {"measurement": "Apigenin retention ratio (amount of apigenin stored at 50° C./amount of apigenin stored at −5° C.)", "setting": "pH 7, BHT 1 ppm", "value": 96, "unit": "%"}, {"measurement": "Apigenin retention ratio (amount of apigenin stored at 50° C./amount of apigenin stored at −5° C.)", "setting": "pH 7, BHT 10 ppm", "value": 98, "unit": "%"}, {"measurement": "Apigenin retention ratio (amount of apigenin stored at 50° C./amount of apigenin stored at −5° C.)", "setting": "pH 7, BHT 100 ppm", "value": 82, "unit": "%"}, {"measurement": "Apigenin retention ratio (amount of apigenin stored at 50° C./amount of apigenin stored at −5° C.)", "setting": "pH 7, BHT 500 ppm", "value": 35, "unit": "%"}, {"measurement": "Apigenin retention ratio (amount of apigenin stored at 50° C./amount of apigenin stored at −5° C.)", "setting": "pH 8, BHT 0 ppm", "value": 98, "unit": "%"}, {"measurement": "Apigenin retention ratio (amount of apigenin stored at 50° C./amount of apigenin stored at −5° C.)", "setting": "pH 8, BHT 1 ppm", "value": 99, "unit": "%"}, {"measurement": "Apigenin retention ratio (amount of apigenin stored at 50° C./amount of apigenin stored at −5° C.)", "setting": "pH 8, BHT 10 ppm", "value": 91, "unit": "%"}, {"measurement": "Apigenin retention ratio (amount of apigenin stored at 50° C./amount of apigenin stored at −5° C.)", "setting": "pH 8, BHT 100 ppm", "value": 73, "unit": "%"}, {"measurement": "Apigenin retention ratio (amount of apigenin stored at 50° C./amount of apigenin stored at −5° C.)", "setting": "pH 8, BHT 500 ppm", "value": 11, "unit": "%"}]}
